One assay deals with S. epidermis biofilm. Briefly: S. epidermis biofilm inhibition, optical density, test/control. The conditions noted are these: Staphylococcus epidermidis, growth of biofilm test/control by optical density.
A further assay has as its system S. aureus biofilm. Briefly: S. aureus biofilm inhibition, optical density, test/control. In kind it is cell-based, Staphylococcus aureus. Conditions: Staphylococcus aureus, growth of biofilm test/control by optical density.
For the next assay, the system named is S. aureus. As to the kind of experiment: S. aureus growth inhibition, optical density, test/control. Conditions: Staphylococcus aureus, growth of bacteria test/control by optical density. In kind it is cell-based, Staphylococcus aureus.

Turning to `C=CCn1c(SCCOC)nc2c(c1=O)C1(CCN(C(=O)Nc3ccccc3)CC1)Cc1cc(OC)ccc1-2` [CCG-211971, 3-allyl-8-methoxy-2-((2-methoxyethyl)thio)-4-oxo-N-phenyl-4,6-dihydro-3H-spiro[benzo[h]quinazoline-5,4′-piperidine]-1′-carboxamide], the activity at 5 µM in the assay on S. epidermis biofilm (read-out: S. epidermis Biofilm inhibition 5 μM vs. (−) Control, 5 μM) amounted to 125%. In addition, the activity at 50 µM in the assay with S. epidermis biofilm (read-out: S. epidermis Biofilm inhibition 50 μM vs. (−) Control, 50 μM) turned out to be 69%.

For `C=CCn1c(SCC)nc2c(c1=O)C(C)(C)Cc1cc(OCC#N)ccc1-2` [CCG-206178], in the assay with S. aureus biofilm, the activity at 10 µM was determined as 56.5%. In addition, the activity at 100 µM with S. aureus was found to be 104%.

`C=CCn1c(SCCOC)nc2c(c1=O)C1(CCN(C=O)CC1)Cc1ccccc1-2` [CCG-206234, 3-Allyl-2-((2-methoxyethyl)thio)-4-oxo-4,6-dihydro-3H-spiro[benzo[h]quinazoline-5,4′-piperidine]-1′-carbaldehyde]: in the assay on S. aureus biofilm, the activity at 10 µM was 101% and the activity at 100 µM stood at 65%. Also, the activity at 100 µM with S. aureus amounted to 99%.

Consider `C=CCn1c(SCC)nc2c(c1=O)C(C)(C)Cc1cc(OC(C)C)ccc1-2` [CCG-205480], for which the activity at 10 µM in the assay on S. aureus biofilm was determined as 52.3%. The activity at 100 µM in the assay with S. aureus stood at 115%.

On to `C=CCn1c(SCC)nc2c(c1=O)C(C)(C)Cc1c(OCCOC)cccc1-2` [CCG-203633], for which the figures for the activity at 100 µM in the assay on S. aureus biofilm and in the assay on S. aureus were 54% and 76.2%, respectively.

As for `COCCSc1nc(OCC2CC2)c2c(n1)-c1ccccc1CC2(C)C` [CCG-205445, 4-(Cyclopropylmethoxy)-2-((2-methoxyethyl)thio)-5,5-dimethyl-5,6-dihydrobenzo[h]quin-azoline], the figures for the activity at 100 µM with S. aureus biofilm and in the assay on S. aureus were 71.1% and 107%, respectively.

Turning to `C=CCn1c(SCCN(C)C)nc2c(c1=O)C1(CCCCC1)Cc1ccccc1-2` [CCG-102495], the activity at 100 µM in the assay on S. aureus biofilm amounted to 78.9%; in the assay on S. aureus, 93%.

In the case of `CCSc1nc2c(c(=O)n1CCOC)C(C)(C)Cc1ccccc1-2` [CCG-203802, 2-(ethylthio)-3-(2-methoxyethyl)-5,5-dimethyl-5,6-dihydrobenzo[h]quinazolin-4(3H)-one], the activity at 100 µM was determined as 55.7% with S. aureus biofilm and 67.7% with S. aureus.

With `COCCSc1nc(OCc2ccc(OC)cc2)c2c(n1)-c1ccccc1CC2(C)C` [CCG-204037, 4-((4-Methoxybenzyl)oxy)-2-((2-methoxyethyl)thio)-5,5-dimethyl-5,6-dihydrobenzo[h]-quinazoline], the activity at 100 µM turned out to be 65.7% in the assay on S. aureus biofilm and 110% in the assay with S. aureus.

On to `C=CCn1c(SCCOC)nc2c(c1=O)C1(CCN(C(=O)c3ccc(Cl)cc3)CC1)Cc1ccccc1-2` [CCG-206235, 3-Allyl-1′-(4-chlorobenzoyl)-2-((2-methoxyethyl)thio)-3H-spiro[benzo[h]quinazoline-5,4′-piperidin]-4(6H)-one], for which the results for the activity at 100 µM in the assay on S. aureus biofilm and in the assay on S. aureus were 77.6% and 106%, respectively.

With `COCCSc1nc(OCC2OCCO2)c2c(n1)-c1ccccc1CC2(C)C` [CCG-203627], the activity at 100 µM stood at 49.6% in the assay on S. aureus biofilm and 80.6% in the assay on S. aureus.

Consider `C=CCn1c(SCCOC)nc2c(c1=O)C(C)(C)Cc1cnccc1-2` [CCG-204041, 3-allyl-2-((2-methoxyethyl)thio)-5,5-dimethyl-5,6-dihydropyrido[3,4-h]quinazolin-4(3H)-one], for which the activity at 100 µM in the assay on S. aureus biofilm was determined as 75.7%; with S. aureus, 90.2%.

For `C=CCn1c(SCCOC)nc2c(c1=O)C1(CCN(C(=O)c3ccccc3)CC1)Cc1ccccc1-2` [CCG-206231, 3-Allyl-1′-benzoyl-2-((2-methoxyethyl)thio)-3H-spiro[benzo[h]quinazoline-5,4′-piperidin]-4(6H)-one], in the assay on S. aureus biofilm, the activity at 10 µM was determined as 52.5%. Besides, the activity at 100 µM is 53% in the assay on S. aureus biofilm and 111% in the assay with S. aureus.

As for `C=CCn1c(OCC)nc2c(c1=O)C1(CCCCC1)Cc1ccccc1-2` [CCG-102622], the activity at 100 µM was 68.6% with S. aureus biofilm and 77.7% with S. aureus.

As to `C=CCn1c(OCC)nc2c(c1=O)C(C)(C)Cc1ccccc1-2` [CCG-203803], the activity at 100 µM in the assay with S. aureus biofilm is 76.8%; in the assay with S. aureus it was 81.9%.

Regarding `C=CCn1c(SCC)nc2c(c1=O)C(C)(C)Cc1c(O)cccc1-2` [CCG-203631], the values for the activity at 100 µM with S. aureus biofilm and with S. aureus were 31.1% and 76.7%, respectively.

As for `COCCSc1nc(OCCOc2ccc(F)cc2)c2c(n1)-c1ccccc1CC2(C)C` [CCG-204028, 4-(2-(4-Fluorophenoxy)ethoxy)-2-((2-methoxyethyl)thio)-5,5-dimethyl-5,6-dihydrobenzo[h]-quinazoline], the activity at 100 µM in the assay on S. aureus biofilm turned out to be 70%; in the assay on S. aureus, 113%.

As for `C=CCn1c(SCc2ccc(NC(C)=O)cc2)nc2c(c1=O)C1(CCCCC1)Cc1ccccc1-2` [CCG-102491], the activity at 100 µM with S. aureus biofilm is 75%; in the assay with S. aureus it was 84.8%.

Take `C=CCOc1nc(SCCOC)nc(-c2ccccc2)c1C` [CCG-205382, 4-(Allyloxy)-2-((2-methoxyethyl)thio)-5-methyl-6-phenylpyrimidine]: the results for the activity at 100 µM in the assay on S. aureus biofilm and with S. aureus were 55.2% and 93.4%, respectively.

Turning to `C=CCn1c(SCCOC)nc2c(c1=O)C(C)(C)Cc1cc(C(=O)OC)ccc1-2` [CCG-205435], in the assay on S. aureus biofilm, the activity at 10 µM came out at 29.3%. For the same compound, the activity at 100 µM in the assay on S. aureus was found to be 126%.

Regarding `COCCSc1nc2c(c(=O)n1CCCC#N)C(C)(C)Cc1ccccc1-2` [CCG-204031, 4-(2-((2-Methoxyethyl)thio)-5,5-dimethyl-4-oxo-5,6-dihydrobenzo[h]quinazolin-3(4H)-yl)butanenitrile], the values for the activity at 100 µM with S. aureus biofilm and in the assay on S. aureus were 59.2% and 98.5%, respectively.

`C=CCn1c(SCC)nc2c(c1=O)C(C)(C)Cc1cc(OCC(C)C)ccc1-2` [CCG-205426, 3-allyl-2-(ethylthio)-8-isobutoxy-5,5-dimethyl-5,6-dihydrobenzo[h]quinazolin-4(3H)-one]: the results for the activity at 100 µM in the assay on S. aureus biofilm and in the assay on S. aureus were 77.8% and 114%, respectively.

With `C=CCn1c(SCCOC)nc2c(c1=O)C1(CCOCC1)Cc1ccccc1-2` [CCG-205453, 3-Allyl-2-((2-methoxyethyl)thio)-2′,3′,5′,6′-tetrahydro-3H-spiro[benzo[h]quinazoline-5,4′-pyran]-4(6H)-one], the activity at 100 µM in the assay with S. aureus biofilm is 79.6%; in the assay with S. aureus, 102%.

In the case of `C=CCn1c(SCCO)nc2c(c1=O)C(C)(C)Cc1ccccc1-2` [CCG-203041], the activity at 100 µM with S. aureus biofilm was found to be 47.7%; with S. aureus it was 89.7%.

Take `C=CCn1c(SC)nc2c(c1=O)C1(CCCCC1)Cc1ccccc1-2` [CCG-102620]: the activity at 100 µM in the assay with S. aureus biofilm came out at 76.5%; with S. aureus, 95.3%.

`C=CCn1c([S+]([O-])CC)nc2c(c1=O)C(C)(C)Cc1ccc(OC)cc1-2` (centres unmarked) [CCG-206355]: the activity at 100 µM is 74.7% with S. aureus biofilm and 96% in the assay on S. aureus.

As to `C=CCn1c(SCCOC)nc2c(c1=O)C1(CCCCC1)Cc1ccccc1-2` [CCG-102493], the results for the activity at 100 µM in the assay with S. aureus biofilm and in the assay on S. aureus were 66% and 72.1%, respectively.

As for `COCCOc1nc(SCCOC)nc(-c2ccccc2)c1C` [CCG-205361, 4-(2-Methoxyethoxy)-2-((2-methoxyethyl)thio)-5-methyl-6-phenylpyrimidine], the activity at 100 µM in the assay with S. aureus biofilm is 67.7%; with S. aureus, 89%.

As to `CCn1c(SCCOC)nc2c(c1=O)C(C)(C)Cc1ccccc1-2` [CCG-203598], the figures for the activity at 100 µM in the assay with S. aureus biofilm and in the assay on S. aureus were 61% and 85.5%, respectively.

Consider `C=CCn1c(SCC)nc2c(c1=O)C(C)(C)Cc1cc(OCCN3C(=O)c4ccccc4C3=O)ccc1-2` [CCG-206176, 2-(2-((3-allyl-2-(ethylthio)-5,5-dimethyl-4-oxo-3,4,5,6-tetrahydrobenzo[h]quinazolin-8-yl)oxy)ethyl)isoindoline-1,3-dione], for which the results for the activity at 100 µM in the assay on S. aureus biofilm and in the assay with S. aureus were 79.5% and 100%, respectively.

In the case of `COCCSc1nc2c(c(=O)n1Cc1ccc(-c3noc(C)n3)cc1)C(C)(C)Cc1ccccc1-2` [CCG-205387, 2-((2-Methoxyethyl)thio)-5,5-dimethyl-3-(4-(5-methyl-1,2,4-oxadiazol-3-yl)benzyl)-5,6-dihydrobenzo[h]quinazolin-4(3H)-one], the activity at 100 µM with S. aureus biofilm is 72.3%; in the assay on S. aureus, 115%.

With `COCCSc1nc(OCC(=O)c2ccc(F)c(F)c2)c2c(n1)-c1ccccc1CC2(C)C` [CCG-204040, 1-(3,4-Difluorophenyl)-2-((2-((2-methoxyethyl)thio)-5,5-dimethyl-5,6-dihydrobenzo[h]-quinazolin-4-yl)oxy)ethanone], the values for the activity at 100 µM with S. aureus biofilm and with S. aureus were 65.9% and 119%, respectively.

As to `COCCSc1nc2c(c(=O)n1CC1CC1)C(C)(C)Cc1ccccc1-2` [CCG-205444, 3-(Cyclopropylmethyl)-2-((2-methoxyethyl)thio)-5,5-dimethyl-5,6-dihydrobenzo[h]quinazolin-4(3H)-one], the activity at 100 µM in the assay on S. aureus biofilm worked out at 66.2%; in the assay with S. aureus, 104%.

As to `COCCSc1nc2c(c(=O)n1CCOc1ccc(F)cc1)C(C)(C)Cc1ccccc1-2` [CCG-204027, 3-(2-(4-Fluorophenoxy)ethyl)-2-((2-methoxyethyl)thio)-5,5-dimethyl-5,6-dihydrobenzo-[h]quinazolin-4(3H)-one], the activity at 100 µM in the assay with S. aureus biofilm is 74.8%; in the assay with S. aureus, 108%.

On to `C=CCn1c(SCc2cccc(OC)c2)nc2c(c1=O)C1(CCCCC1)Cc1ccccc1-2` [CCG-102485], for which the values for the activity at 100 µM with S. aureus biofilm and in the assay on S. aureus were 49.5% and 114%, respectively.

With `C=CCn1c(SCCOC)nc2c(c1=O)CC(C)c1ccccc1-2` (centres unmarked) [CCG-203574], the activity at 100 µM stood at 46.5% in the assay with S. aureus biofilm and 73.8% with S. aureus.
